For orientation: Kd means the equilibrium constant for the complex coming apart. Higher therefore signals a looser complex.

The test relates to anti-phOx-scFv (αphOx15-scFv with c-myc tag), purified monomeric, expressed in Sf9 insect cells. The test can be described thus: Surface plasmon resonance (BIAcore) measurement of the monovalent interaction between immobilised scFv and phOx. It is filed as binding. The conditions noted are these: monomeric anti-phOx-scFv amine-coupled to CM5 sensor chip (2160 RU); phOx offered as analyte phOx20.5BSA in HBS pH 7.4; BSA background RU subtracted; derived from differential RU at different phOx concentrations; error of 12.6% for the slope. As for the experimental part: A second independent assay is employed to confirm the low affinity of the monovalent interaction between anti-phOx-scFv and phOx. Surface plasmon resonance signals (Kretschmann, E. and Raether, H. (1968) Z. Naturforsch. 23a, 2135-2136; Liedberg, et al., (1983) Sensors and Actuators 4, 299-304) are recorded with a BlAcore machine (Pharmacia Biosensor AB; Jönsson, et al., (1991) BioTechniques 11, 620-627; Chaiken, et al., (1992) Anal. Biochem. 201, 197-210). Purified monomeric anti-phOx-scFv at a concentration of 40 µg/ml in 5 mM maionic acid pH 6.0 / 0.05% [v/v] Tween-20 is coupled to a CM5 sensor chip using the Amine Coupling Kit (Pharmacia) as described earlier (Johnsson, et al., (1991) Anal. Biochem. 198, 268-277). Via amino groups, 2160 RU of the purified monomeric anti-phOx-scFv is immobilised to the sensor chip (i.e., about 2 ng/mm^2 chip surface; Stenberg, et al., (1991) J. Colloid Interface Sci. 143, 513-526).The activation time is adjusted to 7 min at a flow rate of 5 µl/min. For immobilisation 35 µl of the scFv sample are injected to the chip at the same flow rate. […]
Since a notable background binding of BSA to the modified chip is observed, it is indispensable to record the scFv binding events for both analytes phOx20.5BSA and BSA. […] KD can be derived from the differential RU measured at different phOx concentrations before dissociation is initiated.
In general terms: In SPR one partner is held on a chip, and binding of the other changes the refractive index at the surface.

In turn, `CCO/C=C1/N=C(c2ccccc2)OC1=O` [phOx] had a Kd of 84.7 µM.

The values above are taken from patent publication EP0857177B1, “PROCESS FOR THE PREPARATION OF A SINGLE CHAIN FV ANTIBODY FRAGMENT” (Novartis AG, priority 1995, dated 1997).
